The results in this text go back to patent publication US20100136541A1, “IDENTIFICATION AND VERIFICATION OF METHYLATION MARKER SEQUENCES” (Siemens Healthcare Diagnostics Inc., priority 2003, published 2010).

Experiment in all cases: Affymetrix expression profiling of treated and untreated cell lines (restoration of gene expression)
Holding throughout (type): cell-based, human

One assay has as its system SCNN1B. The conditions noted are these: cell line LS123, treated vs untreated. On the procedure: (§1) Twenty well characterized, microdissected samples of colorectal cancer tissue were obtained from consenting patients. A second set of twenty, microdissected samples of normal adjacent colon tissue were also obtained. Total RNA was extracted from these samples using RNeasy kits (QIAGEN, Valencia, Calif.) according to the manufacturer's instructions. Expression profiling was performed using the GeneChip expression arrays from Affymetrix (Santa Clara, Calif.). Reverse transcription, second-strand synthesis, and probe generation was accomplished by standard Affymetrix protocols. The Human Genome U133A GeneChip, which contains more than 15,000 substantiated human genes, was hybridized, washed, and scanned according to Affymetrix protocols. Changes in cellular mRNA levels in the cancerous tissues were compared with mRNA levels in the normal colon tissues. GeneSpring v4.2 (Silicon Genetics, Redwood City, Calif.) was used to normalize and scale results and compare gene expression levels in the cancer tissue relative to that in the normal tissue.
(§2) Further support for the clinical importance of these sites comes from the changes seen in gene expression of the genes after treatment of cell lines with 5-aza-2′-deoxyctyidine. These values were obtained from Affymetrix expression profiling of treated and untreated cell lines using the procedure described above.

The subject of another assay is CA4. The conditions noted are these: cell line LS174T, treated vs untreated. On the procedure:
as §1, §2

In another assay the test system is GPX3. The conditions noted are these: cell line LS174T, treated vs untreated. On the procedure:
as §1, §2

`Nc1ncn([C@H]2C[C@H](O)[C@@H](CO)O2)c(=O)n1` [5-aza-2′-deoxycytidine]: the “restoration of gene expression of SCNN1B after treatment” value with SCNN1B was found to be 4.1 fold. The “restoration of gene expression of CA4 after treatment” value in the assay on CA4 was 2.8 fold. Moreover, the “restoration of gene expression of GPX3 after treatment” value in the assay with GPX3 came to 8.5 fold.
